# Assay: Dynamic light scattering (DLS) particle size
# Assay type: physicochemical
# Conditions: in chloroform; reverse micelles at w=11.9
# Method: Samples for dynamic light scattering are prepared by dissolving 1 mg of sample into 4 mL of solvent. The solution was then filtered through a 0.45 μm syringe filter into quartz cuvette with a path length of 2 cm. The measurements are obtained on a Malvern Zetasizer Nano.
# Solubility properties dictate that gluc anions reside in the aqueous polar region of the reverse micelle and remain associated with CDA through the pairing of carboxylate with the cationic […] head group of CDA.
substance,measurement,value
Acetamido Cetyl Dimethyl Ammonium Glucuronate [CDA-gluc],average diameter (DLS),14 nm

# Reference: patent publication US20160367705A1, “NANOPARTICLES COMPRISED OF SHELLS ASSOCIATED WITH CHARGED ENTITIES AND FORMED FROM MONOMERS AND METHODS OF MAKING AND USING NANOPARTICLES” (New York University, priority 2015, published 2016)
